Experimental data: publication PMC4995014, “Identification of ABC Transporter Interaction of a Novel Cyanoquinoline Radiotracer and Implications for Tumour Imaging by Positron Emission Tomography” (PLoS ONE, 2016)

Columns and labels:
PC9 and PC9ER cells = assay: Cell uptake assay in PC9 versus PC9ER cells; assay type: cell-based; conditions: 1 h incubation
Experimental: (§1) [^18F]FED6 and [^18F]FED20 were synthesised as previously reported. To increase specific radioactivity of [^18F]FED20, we modified the synthesis by decreasing the amount of alkyne precursor from 1 mg down to 0.5 mg. While this had the desired effect of increasing the specific activity from 7.3 GBq/μmol up to 52 GBq/μmol, the conversion of the alkyne to the triazole product dropped from > 95% down to 45%. Cells were seeded in 6 well plates and [^18F]FED6 (0.22 MBq) or [^18F]FED20 (0.55 MBq or 0.74 MBq) added to each well and incubated at 37°C for 1 h. Media were then removed and cells were washed twice with PBS. The cells were trypsinised and centrifuged for 3 minutes at 2000 rpm to obtain a pellet. The cell pellet was washed once with PBS and resuspended in 200 μL of RIPA buffer. Cell lysates were transferred to gamma counting tubes and the radioactivity in the pellet was measured on a Packard Cobra II gamma counter, (Perkin-Elmer, Waltham, Massachusetts, USA). Protein concentrations of samples were evaluated using Pierce® BCA Protein Assay Kit (Thermo Scientific, Waltham, Massachusetts, USA). Data were expressed as background- and decay-corrected counts per minute (CCPMA) per μg of cellular protein.

cells = assay: Cell uptake assay, overall magnitude of uptake; assay type: cell-based
Experimental: as §1

EGFR L858R (H3255 cells) = molecular target: T1, EGFR L858R (H3255 cells) (Homo sapiens, UniProt P00533, L858R); assay: Inhibition of EGFR autophosphorylation (p-EGFR Y1068, western blot) in H3255 cells; assay type: cell-based; conditions: 3 h incubation, densitometry of western blots
T1 construct: host or cells: H3255
T1 sequence (P00533 25-1210 L858R): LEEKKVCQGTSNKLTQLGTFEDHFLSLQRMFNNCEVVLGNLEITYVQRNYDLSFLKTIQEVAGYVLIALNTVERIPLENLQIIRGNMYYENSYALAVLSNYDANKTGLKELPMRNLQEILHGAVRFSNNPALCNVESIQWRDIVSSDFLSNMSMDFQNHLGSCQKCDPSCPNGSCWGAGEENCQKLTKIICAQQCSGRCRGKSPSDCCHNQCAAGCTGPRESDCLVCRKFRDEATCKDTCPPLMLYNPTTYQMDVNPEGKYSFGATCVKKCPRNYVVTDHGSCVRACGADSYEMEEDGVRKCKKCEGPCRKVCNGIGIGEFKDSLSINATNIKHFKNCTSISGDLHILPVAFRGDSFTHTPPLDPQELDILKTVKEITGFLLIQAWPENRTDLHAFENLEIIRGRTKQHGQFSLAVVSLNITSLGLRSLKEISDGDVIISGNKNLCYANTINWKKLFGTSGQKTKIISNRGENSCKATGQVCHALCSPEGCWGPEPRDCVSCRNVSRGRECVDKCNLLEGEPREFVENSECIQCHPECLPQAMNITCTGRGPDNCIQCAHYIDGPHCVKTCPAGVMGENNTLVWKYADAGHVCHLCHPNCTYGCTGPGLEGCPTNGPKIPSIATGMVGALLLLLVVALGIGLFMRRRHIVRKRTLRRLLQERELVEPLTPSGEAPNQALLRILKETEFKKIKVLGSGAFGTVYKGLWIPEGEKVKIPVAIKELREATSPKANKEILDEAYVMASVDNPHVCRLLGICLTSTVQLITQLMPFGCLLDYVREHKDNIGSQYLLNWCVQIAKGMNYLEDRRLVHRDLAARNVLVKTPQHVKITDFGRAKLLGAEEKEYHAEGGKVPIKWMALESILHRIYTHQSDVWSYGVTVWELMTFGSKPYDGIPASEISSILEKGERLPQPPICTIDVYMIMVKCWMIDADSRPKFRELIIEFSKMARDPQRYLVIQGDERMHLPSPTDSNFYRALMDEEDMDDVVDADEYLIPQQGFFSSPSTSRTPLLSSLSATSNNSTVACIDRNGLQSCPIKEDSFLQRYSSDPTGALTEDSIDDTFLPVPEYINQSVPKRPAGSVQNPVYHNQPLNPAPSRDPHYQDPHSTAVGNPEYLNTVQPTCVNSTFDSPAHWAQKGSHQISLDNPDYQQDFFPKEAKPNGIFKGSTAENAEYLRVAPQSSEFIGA
Experimental: (§2) Affinity of the cyanoquinolines for EGFR was established by measuring their inhibition of EGFR autophosphorylation via western blot. Cells were seeded in 6 well plates and following 24 h of growth, were subject to overnight serum starvation. The cells were then treated with increasing concentrations of cyanoquinolines prepared in serum free growth media from a DMSO stock (final DMSO concentration < 1%) for 3 h at 37°C, and stimulated for receptor autophosphorylation by addition of 100 ng/mL of EGF during the last 15 minutes of drug incubation. After 3 h the cells were placed on ice, media removed and then the cells were washed two times with ice cold phosphate buffered saline (PBS). Lysates were analysed by western blot to measure changes to p-EGFR Y1068.
(§3) Cells were collected into a microcentrifuge tube and sonicated for 30 seconds on ice. Cellular protein levels were assessed using a bicinchoninic acid (BCA) protein assay kit according to the manufacturer’s instructions (Thermo scientific). […] Samples were transferred to polyvinylidene difluoride (PVDF) membrane using Trans-Blot Turbo system BIO-RAD (Hercules, California, USA). […] The membranes were then incubated overnight with primary antibody prepared in 1% milk or 1% BSA in TBST. […] Membranes were washed a further three times for 10 minutes with TBST. […]

Caco2 transwell assay = assay type: in vitro ADME, human; conditions: human, Caco-2, no inhibitor; 10 μM cyanoquinoline or 50 μM vinblastine, 120 min; read-out: efflux ratio (Papp B-A / Papp A-B)
Experimental: (§4) The caco2 transwell assay was performed to assess permeability. Cells were seeded at a density of 60,000 cells per well in 24 well transwell plates (Millipore, Billerica, Massachutsetts, USA), and maintained in DMEM supplemented with […] glucose (20% FBS, 1% penicillin/streptomycin, 1% glutamine) for 21 days at 37°C in 5% CO2. After 21 days the cells differentiate into enterocytes and express all three MDR proteins, ABCB1 and ABCG2 at the apical side and ABCC1 on the basal side. On day 21, cells were washed three times with Hank's Balanced Salt Solution (HBSS) (Fisher scientific, Loughborough, UK) and the trans-epithelial electric resistance (TERR) was measured using an Epithelial Voltohmmeter (EVOM) (World Precision Instruments, Sarasota, USA); only transwells with TERR of 400 Ω/cm^2 or above were used for the experiment. Cells were treated either at the apical (n = 3) or basal (n = 3) side of the transwell by addition of 10 μM of cyanoquinoline compound or 50 μM vinblastine prepared in a volume of 400 μL HBSS (compound added to apical well) or 800 μL of HBSS (added to basal well). When transport inhibitors FTC (10 μM) or zosuquidar (0.3 μM) were used, they were added to both the apical and basal wells 1 h prior to drug treatment. After 1 h pre-treatment the medium was removed and cells were treated with the compounds prepared in HBSS containing FTC or Zosuquidar.
(§5) Plates were incubated in shaker incubator at 37°C and 60 rpm for 120 min. After incubation, 200 μL aliquots from the apical and the basal wells were collected and analysed using high performance liquid chromatography (HPLC). Samples were run on a Millipore Waters HPLC system which included a 717 plus autosampler and 2487 dual wavelength absorbance detector system. The stationary phase comprised of a Phenomenex Luna C18 reverse phase column (150 X 4.6 mm; 5 μm particle size). The mobile phase comprised water (0.1% TFA) and acetonitrile (0.1% TFA) (80:20 v/v) at a flow rate of 1 mL/min for all compounds except vinblastine. For vinblastine, the stationary phase comprised a Supelcosil LC-ABZ reverse phase column (5 × 4.6 mm; 5 μm particle size). The mobile phase comprised water (0.1% formic acid) and methanol (90:10 to 10:90 v/v gradient over 20 min). Peak areas corresponding to the compounds of interest were recorded. Using standard curves the areas under the curve were converted into concentrations of compound. The permeability coefficient (Papp) was calculated using the following equation [30]: Papp = (dQ/dt)/A C0, where A is the surface area of the transwell membrane in cm^2 (= 0.33 cm^2), C0 is the drug concentration in the donor chamber at time t = 0 and dQ/dt is the rate of transfer of the compound to the receiver chamber, determined from the slope of the graph concentration (dQ) versus time (dt). Papp values corresponding to absorption and secretion were assessed and used to calculate efflux ratio. Efflux ratio =(Papp B−A)/(Papp A−B) Where Papp A-B = Papp absorption and Papp B-A = Papp secretion.
(§6) The integrity of the caco2 cell membrane was assessed for each well following the experiment by addition of a 100 μM solution of […] (Sigma) in HBSS to the apical side of the plate. The plates were placed in the shaker incubator for 1 h at 37°C and 60 rpm. Samples from the basal wells were transferred into a 96 well plate and the levels of […] were assessed by measuring with an excitation of 450 nm and an emission of 540 nm using the PerkinElmer Wallac 1420 counter.

caco2 cells = assay: Caco2 transwell assay; assay type: in vitro ADME, human; conditions: pre-treatment with zosuquidar
Experimental: as §4, §5, §6

[1] = molecular target: T2, EGFR L858R/T790M (H1975 cells) (Homo sapiens, UniProt P00533, L858R/T790M); assay: Inhibition of EGFR autophosphorylation (p-EGFR Y1068, western blot) in H1975 cells; assay type: cell-based; conditions: 3 h incubation, densitometry of western blots
T2 construct: host or cells: H1975
T2 sequence (P00533 25-1210 T790M/L858R): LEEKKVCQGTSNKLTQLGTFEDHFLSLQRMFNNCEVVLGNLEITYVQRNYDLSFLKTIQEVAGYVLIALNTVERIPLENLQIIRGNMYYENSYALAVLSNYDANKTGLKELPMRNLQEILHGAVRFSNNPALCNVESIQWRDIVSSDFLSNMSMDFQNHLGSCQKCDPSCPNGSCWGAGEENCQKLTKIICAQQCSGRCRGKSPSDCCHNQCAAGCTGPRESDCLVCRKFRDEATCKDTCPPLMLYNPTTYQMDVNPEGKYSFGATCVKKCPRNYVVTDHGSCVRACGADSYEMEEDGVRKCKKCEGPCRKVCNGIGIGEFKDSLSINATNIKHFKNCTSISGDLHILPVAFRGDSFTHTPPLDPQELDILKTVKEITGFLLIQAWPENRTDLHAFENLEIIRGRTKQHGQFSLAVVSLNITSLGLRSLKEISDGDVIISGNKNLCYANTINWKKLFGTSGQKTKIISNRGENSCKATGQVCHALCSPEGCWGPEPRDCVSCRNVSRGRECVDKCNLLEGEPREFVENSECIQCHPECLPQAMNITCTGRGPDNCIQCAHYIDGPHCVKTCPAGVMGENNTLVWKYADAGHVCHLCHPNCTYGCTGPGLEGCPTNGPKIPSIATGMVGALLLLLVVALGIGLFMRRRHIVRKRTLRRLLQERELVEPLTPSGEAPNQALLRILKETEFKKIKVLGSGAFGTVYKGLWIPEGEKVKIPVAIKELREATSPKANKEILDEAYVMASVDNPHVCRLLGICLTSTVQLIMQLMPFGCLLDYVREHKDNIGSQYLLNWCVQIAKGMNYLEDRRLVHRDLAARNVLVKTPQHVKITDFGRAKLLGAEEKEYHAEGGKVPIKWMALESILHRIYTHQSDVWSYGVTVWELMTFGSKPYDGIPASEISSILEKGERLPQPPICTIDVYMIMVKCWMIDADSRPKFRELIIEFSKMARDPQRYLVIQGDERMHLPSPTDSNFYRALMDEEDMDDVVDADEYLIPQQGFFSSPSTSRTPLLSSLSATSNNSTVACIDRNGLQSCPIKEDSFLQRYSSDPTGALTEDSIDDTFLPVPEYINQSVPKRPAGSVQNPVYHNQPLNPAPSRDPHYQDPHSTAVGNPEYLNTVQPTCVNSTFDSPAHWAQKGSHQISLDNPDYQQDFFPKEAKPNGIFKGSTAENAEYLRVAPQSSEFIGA
Experimental: as §2, §3

[2] = molecular target: T3, EGFR Del E746-A750/T790M (PC9ER cells) (Homo sapiens, UniProt P00533, DEL746-750/T790M); assay: Inhibition of EGFR autophosphorylation (p-EGFR Y1068, western blot) in PC9ER cells; assay type: cell-based
T3 construct: endogenous in cells; host or cells: PC9ER (Dr Olivier Pardo, Imperial College London)
T3 sequence (P00533 with tags, fused parts or gaps DEL746-750/T790M): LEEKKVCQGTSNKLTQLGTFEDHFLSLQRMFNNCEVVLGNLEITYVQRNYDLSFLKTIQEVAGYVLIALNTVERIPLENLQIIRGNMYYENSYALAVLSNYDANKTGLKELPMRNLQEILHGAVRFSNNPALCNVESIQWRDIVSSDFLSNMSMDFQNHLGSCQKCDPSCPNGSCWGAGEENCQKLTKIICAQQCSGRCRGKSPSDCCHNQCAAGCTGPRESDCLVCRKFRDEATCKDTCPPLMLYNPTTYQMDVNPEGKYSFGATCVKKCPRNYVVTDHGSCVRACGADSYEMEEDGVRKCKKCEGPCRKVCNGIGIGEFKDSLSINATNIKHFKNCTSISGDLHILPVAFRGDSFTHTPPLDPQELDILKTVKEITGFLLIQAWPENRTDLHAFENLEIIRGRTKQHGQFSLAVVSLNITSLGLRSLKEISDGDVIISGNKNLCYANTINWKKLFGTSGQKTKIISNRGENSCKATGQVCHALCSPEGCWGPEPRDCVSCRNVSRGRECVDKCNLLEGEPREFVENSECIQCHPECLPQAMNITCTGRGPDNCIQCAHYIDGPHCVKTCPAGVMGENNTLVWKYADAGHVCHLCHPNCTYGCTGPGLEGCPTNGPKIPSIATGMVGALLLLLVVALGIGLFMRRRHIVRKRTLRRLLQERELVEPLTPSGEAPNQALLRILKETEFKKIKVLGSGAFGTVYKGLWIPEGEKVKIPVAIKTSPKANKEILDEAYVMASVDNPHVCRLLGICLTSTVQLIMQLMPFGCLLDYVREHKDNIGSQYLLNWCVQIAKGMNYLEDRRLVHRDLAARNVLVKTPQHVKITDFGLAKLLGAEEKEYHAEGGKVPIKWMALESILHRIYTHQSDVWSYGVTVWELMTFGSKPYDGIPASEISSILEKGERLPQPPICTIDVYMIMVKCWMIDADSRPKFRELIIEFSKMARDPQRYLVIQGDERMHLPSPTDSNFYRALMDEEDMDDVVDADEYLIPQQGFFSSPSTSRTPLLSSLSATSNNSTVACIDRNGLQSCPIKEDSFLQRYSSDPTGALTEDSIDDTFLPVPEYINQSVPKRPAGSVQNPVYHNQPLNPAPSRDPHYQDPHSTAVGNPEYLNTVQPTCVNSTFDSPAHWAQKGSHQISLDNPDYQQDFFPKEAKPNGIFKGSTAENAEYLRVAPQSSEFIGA
Experimental: as §2
Cells were collected into a microcentrifuge tube and sonicated for 30 seconds on ice. Cellular protein levels were assessed using a bicinchoninic acid (BCA) protein assay kit according to the manufacturer’s instructions (Thermo scientific). […] Samples were transferred to polyvinylidene difluoride (PVDF) membrane using Trans-Blot Turbo system BIO-RAD (Hercules, California, USA). […] The membranes were then incubated overnight with primary antibody prepared in 1% milk or 1% BSA in TBST. […] Membranes were washed a further three times for 10 minutes with TBST. Blots were visualised using chemoluminescence (ECL, GE Healthcare, Little Chalfont, UK) and developed on Amersham Hyperfilm ECL (GE Healthcare). β-Actin was used as a loading control.

EGFR = system: EGFR; parameters: method as in PMID 20797871, PMID 24307532; conditions: cell-free; read-out: IC50 for inhibition of cell-free EGFR phosphorylation; cited from earlier work
[3] = molecular target: T4, EGFR Del E746-A750 (PC9 cells) (Homo sapiens, UniProt P00533, DEL746-750); assay: Inhibition of EGFR autophosphorylation (p-EGFR Y1068, western blot) in PC9 cells; assay type: cell-based; conditions: 3 h incubation, densitometry of western blots
T4 construct: endogenous in cells; host or cells: PC9 (Dr Olivier Pardo, Imperial College London)
T4 sequence (P00533 with tags, fused parts or gaps DEL746-750): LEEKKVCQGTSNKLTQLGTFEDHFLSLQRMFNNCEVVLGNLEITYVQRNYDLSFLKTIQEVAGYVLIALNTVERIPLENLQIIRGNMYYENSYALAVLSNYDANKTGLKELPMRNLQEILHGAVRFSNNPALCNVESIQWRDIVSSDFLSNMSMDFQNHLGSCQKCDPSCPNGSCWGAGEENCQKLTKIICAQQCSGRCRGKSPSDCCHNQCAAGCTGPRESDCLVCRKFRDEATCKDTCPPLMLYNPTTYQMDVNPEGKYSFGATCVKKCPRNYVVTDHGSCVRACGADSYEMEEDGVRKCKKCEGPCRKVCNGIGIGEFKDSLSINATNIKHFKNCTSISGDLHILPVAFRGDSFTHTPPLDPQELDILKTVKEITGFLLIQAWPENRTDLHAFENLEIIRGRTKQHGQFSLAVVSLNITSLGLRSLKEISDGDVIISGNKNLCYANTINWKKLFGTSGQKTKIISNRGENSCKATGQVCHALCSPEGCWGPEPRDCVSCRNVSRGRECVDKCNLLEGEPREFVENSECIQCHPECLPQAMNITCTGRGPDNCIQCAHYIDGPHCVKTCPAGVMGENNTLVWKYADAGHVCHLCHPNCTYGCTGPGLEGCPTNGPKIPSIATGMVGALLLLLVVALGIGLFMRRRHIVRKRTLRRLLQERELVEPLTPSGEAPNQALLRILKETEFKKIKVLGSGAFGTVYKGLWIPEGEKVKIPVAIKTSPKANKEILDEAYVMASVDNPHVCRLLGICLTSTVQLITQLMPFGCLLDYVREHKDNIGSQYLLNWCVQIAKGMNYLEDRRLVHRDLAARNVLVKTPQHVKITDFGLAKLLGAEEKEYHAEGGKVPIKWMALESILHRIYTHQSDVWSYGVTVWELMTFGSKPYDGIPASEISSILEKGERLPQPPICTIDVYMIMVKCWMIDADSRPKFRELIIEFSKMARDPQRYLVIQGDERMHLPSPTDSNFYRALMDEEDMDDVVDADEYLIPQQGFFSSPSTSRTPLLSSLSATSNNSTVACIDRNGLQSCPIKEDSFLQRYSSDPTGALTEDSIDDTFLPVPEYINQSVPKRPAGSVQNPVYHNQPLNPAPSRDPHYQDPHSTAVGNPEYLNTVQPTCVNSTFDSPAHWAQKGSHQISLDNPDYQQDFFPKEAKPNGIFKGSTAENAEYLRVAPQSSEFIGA
Experimental: as §2, §3

SMILES | fold higher uptake in PC9 compared to PC9ER cells (PC9 and PC9ER cells) | fold lower magnitude of uptake than [^18F]FED6 (cells) | IC50 (EGFR L858R (H3255 cells)) | efflux ratio at 120 min (Caco2 transwell assay) | efflux (permeability) ratio after pre-treatment with zosuquidar (caco2 cells) | IC50 [1] | IC50 ([2]; 3 h incubation, densitometry of western blots) | fold higher IC50 (p-EGFR) in PC9ER compared to PC9 ([2]; PC9ER versus isogenic PC9) | IC50 (EGFR) | IC50 [3]
CCOc1cc2ncc(C#N)c(Nc3ccc(F)c(Cl)c3)c2cc1NC(=O)/C=C/CNCc1cn([C@@H]2OC(CO)[C@@H](O)C(O)C2[18F])nn1 (stereo partly drawn) [[^18F]FED20, [^18F](2E)-N-{4-[(3-chloro-4-fluorophenyl)amino]-3-cyano-7-ethoxyquinolin-6-yl}-4-[({1-[(2R,5S)-3-fluoro-4,5-dihydroxy-6-(hydroxymethyl)oxan-2-yl]-1H-1,2,3-triazol-4-yl}methyl)amino]but-2-enamide] | 2 fold | > 5 fold |  |  |  |  |  |  |  | 
CCOc1cc2ncc(C#N)c(Nc3ccc(F)c(Cl)c3)c2cc1NC(=O)/C=C/CNCc1cn([C@@H]2OC(CO)[C@@H](O)C(O)C2F)nn1 (stereo partly drawn) [FED20, (2E)-N-{4-[(3-chloro-4-fluorophenyl)amino]-3-cyano-7-ethoxyquinolin-6-yl}-4-[({1-[(2R,5S)-3-fluoro-4,5-dihydroxy-6-(hydroxymethyl)oxan-2-yl]-1H-1,2,3-triazol-4-yl}methyl)amino]but-2-enamide] |  |  | 300 nM | 1.3 | did not have any effect | 7100 nM | 700 nM | 2 fold | 4.5 nM | 300 nM
